Test results: patent US5145781A (priority 1989, dated 1992)

Columns and labels:
[1] = Water-solubility, light-resistance and stability (general statements); assay type: physicochemical
[2] = cited from earlier work
alpha-glucosidase = assay: Hydrolysis by alpha-glucosidase from pig liver; assay type: biochemical; details: alpha-glucosidase extracted from pig liver, partially purified
7 week-old dd mice = assay: Acute toxicity test, oral administration to mice; assay type: in vivo; details: orally administered

Structure (SMILES)	stability in an alkaline solution [1]	solubility in water ([2]; ambient temperature)	solubility in water, in words [2]	hydrolysis by alpha-glucosidase (alpha-glucosidase)	acute toxicity, in words (7 week-old dd mice)	mortality (7 week-old dd mice; up to 5g, higher dose was difficult)
C[C@@H]1O[C@@H](OC[C@H]2O[C@@H](Oc3c(-c4ccc(O)c(O)c4)oc4cc(O)cc(O)c4c3=O)[C@H](O)[C@@H](O)[C@@H]2O)[C@H](O)[C@H](O)[C@H]1O [rutin]	tends to readily decompose	about 0.01 w/v %	hardly soluble in water			
C[C@@H]1O[C@@H](OC[C@H]2O[C@@H](Oc3c(-c4ccc(O)c(O)c4)oc4cc(O)cc(O)c4c3=O)[C@H](O)[C@@H](O)[C@@H]2O[C@H]2O[C@H](CO)[C@@H](O)[C@H](O)[C@H]2O)[C@H](O)[C@H](O)[C@H]1O [Example A-2, alpha-glucosyl rutin]				hydrolyzed the alphaglucosyl rutin into rutin and D-glucose	extremely low	the same result
